Measurements: patent publication US20200339544A1 (JOINT STOCK COMPANY "BIOCAD", priority 2017, published 2020)

Experiments:
[1] = Chemical stability in human blood plasma; type: in vitro ADME; conditions: pooled human blood plasma; 10 μm; 4 hours at 37° C.; substance amount remaining
Procedure, shortened: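 Pooled plasma from ten healthy donors was spiked to 10 μM from a 10 mM DMSO stock and held 4 h at 37 °C. After acetonitrile protein precipitation, HPLC peak areas before and after incubation gave the percentage of compound remaining.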

[2] = Enzyme stability in human liver S9 fractions; type: in vitro ADME; conditions: 0.5 mg/mL pooled human liver S9 fractions; 10 μM compound; 37° C.; pH 7.4; read-out: Stability in liver S9 fractions, Clint
Procedure, shortened: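 Compound at 10 μM was incubated at 37 °C with 0.5 mg/mL pooled human liver S9, 2 mM β-NAD and 4 mM MgCl2 in 0.1 M sodium phosphate, pH 7.4, then quenched with acetonitrile and analysed chromatographically. T½ and CLint were derived from the slope of log peak area versus time.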

[3] = Permeability through monolayer of Caco-2 cells; type: in vitro ADME; conditions: human, Caco-2 monolayer; for Papp A→B at 2 h, 10 µM: pH 6.5 upper / pH 7.4 lower, 2 h at 37° C.; for efflux ratio at 2 h, 10 µM: Papp B-A/Papp A-B
Description: 2) Assessment of permeability through monolayer of Caco-2 cells.
Assessment of permeability through the monolayer of Caco-2 cells allows to evaluate the ability of the candidate compounds to penetrate through biological membranes by active and passive transport.
Caco-2, the cells of the intestinal epithelium, had been cultured in transwell plate inserts with the filters (with pores of 0.4 μm, BD Falcon with High Density) for 21 days, and then the integrity of the monolayer were estimated with Lucifer Yellow (Sigma-Aldrich, USA) by standard protocol. When setting the A→B transfer (“intestinal lumen”—“blood stream” transfer), solutions of test substances were added in a buffer with pH 6.5 (HBSS, 10 mM HEPES, 15 mM glucose solution) with the concentration of 10 μM into the upper chamber; the lower chamber was filled with a buffer with pH 7.4 (HBSS, 10 mM HEPES, 15 mM Glucose, 1% BSA). When setting B→A transfer (“blood stream”—“intestinal lumen” transfer), the upper chamber was filled with the buffer with pH 6.5, and solutions of the test substances were added in the buffer with pH 7.4 at the concentration of 10 μM in the lower chamber. Propranolol was used as a control substance (as it has high permeability).
After incubating for 2 h at 37° C. under 5% CO2, the amounts of test substances were determined in the upper and lower chambers by HPLC using Agilent1200 chromatograph (Agilent, USA) with preliminary protein precipitation with acetonitrile. We used gradient elution (1 mL/min flow rate). We determined the areas of peaks corresponding to the compounds. On the basis of peak areas in the calibration standards we determined the concentration of compound in the initial solution and in the samples from the wells of the upper and lower chambers. Papp, permeability through the cell layer, was calculated using the following formula:
Papp=(C(t)*V)/(C(0)*t*Area), wherein
The value was calculated with the following formula:
efflux=Papp B-A/Papp A-B, wherein • Papp A-B—the volume of permeability in A→B test; • Papp B-A—he volume of permeability in B→A test.

[4] = target: T1, DM EGFR (DoubleMutantEGFR, L828R/T790M) (Homo sapiens, UniProt P00533, L858R/T790M); test: Inhibition of DM EGFR kinase activity (ADP-Glo); type: biochemical; conditions: for IC50: inhibition of kinase activity, EGFR DM (L828R/T790M); for SI, IC50(WT)/IC50(DM): selectivity index, kinase EGFR WT vs EGFR DM
T1 construct: purchased SignalChem
Procedure, shortened: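 Recombinant WT or double-mutant EGFR was incubated with a solution of 0.5 mg/mL peptide substrate and 50 μM ATP for 180 minutes at 37° C. Kinase activity was detected by ADP-Glo luminescence. IC50 values came from a four-parameter logistic fit.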

[5] = General cytotoxicity on HepG2 cells; type: cell-based; conditions: human; general cytotoxicity, HepG2 cells, 72 hours, average of several tests
Procedure, shortened: (§1)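 HepG2 cells seeded at 2*10^4 cells per well and compounds added in DMEM with 2% FBS for 72 h at 37 °C. Viability read with Alamar Blue and CC50 derived as for IC50. Therapeutic index taken as HepG2 CC50 over H1975 IC50.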

HepG2 cells = test: General cytotoxicity on HepG2 cells; type: cell-based; conditions: therapeutic index, CC50 HepG2 / IC50 H1975
Procedure, shortened: as §1

Structure (SMILES): C=CC(=O)Nc1cc(Nc2nccc(C(=O)c3ccc(N(CC)CC)cc3)n2)c(OC)cc1N(C)CCN(C)C [EGFR_3365_72, N-(5-((4-(4-(diethylamino)benzoyl)pyrimidin-2-yl)amino)-2-((2-(dimethylamino)ethyl)(methyl)amino)-4-methoxyphenyl)acrylamide]
- Stability in blood plasma, % [1]: 94.6%
- Intrinsic clearance in human liver S9 fractions at 10 µM [2]: 20.2 µL/min/mg
- Papp A→B at 2 h, 10 µM [3]: 3.5 ×10⁻⁶ cm/s
- efflux ratio at 2 h, 10 µM [3]: 1.5
- IC50 [4]: 0.00371 µM
- SI, IC50(WT)/IC50(DM) [4]: 15.09
- CC50 at 72 h [5]: 16.2 µM
- TI, CC50/IC50 (HepG2 cells): 1408

Structure (SMILES): C=CC(=O)Nc1cc(Nc2nccc(C(=O)c3ccc(N(C)C)cc3)n2)c(OC)cc1N(C)CCN(C)C [EGFR_3365_73, N-(5-((4-(4-(dimethylamino)benzoyl)pyrimidin-2-yl)amino)-2-((2-(dimethylamino)ethyl) (methyl)amino)-4-methoxyphenyl)acrylamide]
- Stability in blood plasma, % [1]: 90.5%
- Intrinsic clearance in human liver S9 fractions at 10 µM [2]: 11.1 µL/min/mg
- Papp A→B at 2 h, 10 µM [3]: 5.1 ×10⁻⁶ cm/s
- efflux ratio at 2 h, 10 µM [3]: 1.6
- IC50 [4]: 0.00235 µM
- SI, IC50(WT)/IC50(DM) [4]: 13.89
- CC50 at 72 h [5]: 35.6 µM
- TI, CC50/IC50 (HepG2 cells): 3465

Structure (SMILES): C=CC(=O)Nc1cc(Nc2nccc(C(=O)c3ccc(N4CCCCC4)cc3)n2)c(OC)cc1N(C)CCN(C)C [EGFR_3365_90, N-(2-((2-(dimethylamino)ethyl)(methyl)amino)-4-methoxy-5-((4-(4-(piperidin-1-yl)benzoyl)pyrimidin-2-yl)amino)phenyl)acrylamide]
- Stability in blood plasma, % [1]: 98.1%
- Intrinsic clearance in human liver S9 fractions at 10 µM [2]: 23.1 µL/min/mg
- Papp A→B at 2 h, 10 µM [3]: 2.2 ×10⁻⁶ cm/s
- efflux ratio at 2 h, 10 µM [3]: 1.49
- IC50 [4]: 0.00075 µM
- SI, IC50(WT)/IC50(DM) [4]: 43.40
- CC50 at 72 h [5]: 12.8 µM
- TI, CC50/IC50 (HepG2 cells): 1689

Structure (SMILES): C=CC(=O)Nc1cc(Nc2nccc(C(=O)c3ccc(OC)cc3OCCC)n2)c(OC)cc1N(C)CCN(C)C [EGFR_3365_102, N-(2-((2-(dimethylamino)ethyl)(methyl)amino)-4-methoxy-5-((4-(4-methoxy-2-propoxybenzoyl)pyrimidin-2-yl)amino)phenyl)acrylamide]
- Stability in blood plasma, % [1]: 82.7%
- Intrinsic clearance in human liver S9 fractions at 10 µM [2]: 21.9 µL/min/mg
- Papp A→B at 2 h, 10 µM [3]: 27.5 ×10⁻⁶ cm/s
- efflux ratio at 2 h, 10 µM [3]: 1.62
- IC50 [4]: 0.0112 µM
- SI, IC50(WT)/IC50(DM) [4]: 18.40
- CC50 at 72 h [5]: 27.5 µM
- TI, CC50/IC50 (HepG2 cells): 342

Structure (SMILES): C=CC(=O)Nc1cc(Nc2nccc(C(=O)c3ccc(N4CCC(N)CC4)cc3)n2)c(OC)cc1N(C)CCN(C)C [EGFR_3365_121, N-(5-((4-(4-(4-aminopiperidin-1-yl)benzoyl)pyrimidin-2-yl)amino)-2-((2-(dimethylamino)ethyl)(methyl)amino)-4-methoxyphenyl)acrylamide]
- Stability in blood plasma, % [1]: 98.3%
- Intrinsic clearance in human liver S9 fractions at 10 µM [2]: 1.4 µL/min/mg
- Papp A→B at 2 h, 10 µM [3]: 1.87 ×10⁻⁶ cm/s
- efflux ratio at 2 h, 10 µM [3]: 0.87
- IC50 [4]: 0.00089 µM
- SI, IC50(WT)/IC50(DM) [4]: 24.30
- CC50 at 72 h [5]: 75.1 µM
- TI, CC50/IC50 (HepG2 cells): 17832
